Test results published in patent US8541002B2, “Vaccine for treatment and prevention of herpes simplex virus infection” (Agenus Inc., priority 2003, dated 2013).
Where no end group is shown, it is not given here.

Experiment: Turbidity assay for solubility of the peptides
Assay type: physicochemical
Conditions: solubility of the antigenic peptides in water or Dimethyl Sulfoxide (DMSO)
Experimental: A number of antigenic peptides of the invention were synthesized by chemical synthesis as described in Section 5.1.1.
A turbidity assay was used to assess the solubility of the peptides. Turbidity assays used either a Varian Cary double-beam spectrophotometer, or a Molecular Devices Spectromax absorbance plate reader (for high throughput experiments). The spectrophotometer assay read every 2 nm between 340 nm and 360 nm, and averaged the values. Samples were analyzed in duplicate using a quartz micro-cuvette that holds about 200 uL. The plate reader assay used a 96-well plate format that read every 4 nm between 340 nm and 360 nm and averaged those values. Samples in this assay were run in triplicate.

**Q.** For `CC(C)C[C@H](NC(=O)[C@H](CO)NC(=O)[C@@H]1CCCN1C(=O)[C@H](CC(=O)O)NC(=O)[C@H](CS)NC(=O)[C@H](CC(=O)O)NC(=O)CNC(=O)[C@H](C)NC(=O)[C@@H]1CCCN1C(=O)[C@@H](N)CC(=O)O)C(=O)N[C@@H](Cc1c[nH]cn1)C(=O)N[C@H](C(=O)N[C@@H](CC(C)C)C(=O)N[C@@H](CC(C)C)C(=O)N[C@@H](CCCNC(=N)N)C(=O)N1CCC[C@H]1C(=O)N[C@H](C(=O)N[C@@H](CC(C)C)C(=O)N[C@@H](CC(C)C)C(=O)N1CCC[C@H]1C(=O)N[C@@H](CCCCN)C(=O)N[C@@H](CC(C)C)C(=O)N[C@@H](CC(C)C)C(=O)N[C@H](C(=O)N[C@@H](CCCNC(=N)N)C(=O)N[C@@H](C)C(=O)N1CCC[C@H]1C(=O)N[C@@H](Cc1ccccc1)C(=O)N[C@@H](CCCCN)C(=O)N[C@@H](CO)C(=O)NCC(=O)N[C@@H](C)C(=O)N[C@@H](C)C(=O)N[C@@H](C)C(=O)N[C@@H](C)C(=O)O)C(C)C)[C@@H](C)O)C(C)C` [UL46-1], which Solubility is on record?
**A.** water

**Q.** With “ILSPGALAAIENYVRFSADRLLGLIHMQPLYSAPA [UL40-2]” as the molecule, how does the Solubility read?
**A.** water

**Q.** For “PQPPLPQPPLPQPPLPQPPLPPVTRTLTPQSRDSV [UL36-3]”, which Solubility is on record?
**A.** water

**Q.** Which Solubility does the source give for “DRPSAYGTWVRVRVFRPPSLTIHPHAVLEGQPFKA [UL44-4]” here?
**A.** water

**Q.** Which Solubility does the source give for “TQDTACVHGELLARKRERFAAVINRFLDLHQILRG [UL33-2]” here?
**A.** water

**Q.** For “VTTAEFPRDPGQLLYIPKTYLLGRPRNASLPELPE [UL22-1]”, which Solubility is on record?
**A.** water

**Q.** For “LEVIFPTTDAKLNYLSRTQRLASLLTYAGPIKAPD [UL33-1]”, which Solubility is on record?
**A.** water

**Q.** With “DEVAPDHEAELYARVQRPGPVPDAEPIYDTVEGYA [UL10-5]” as the molecule, how does the Solubility read?
**A.** water

**Q.** Which Solubility does the source give for “VNSAETNTHGLAYDVPEGIRRHLRNPKIRRAFTEQ [UL13-2]” here?
**A.** water

**Q.** Which Solubility does the source give for `CSCC[C@H](NC(=O)[C@H](Cc1c[nH]c2ccccc12)NC(=O)[C@H](CO)NC(=O)[C@H](C)NC(=O)[C@H](Cc1c[nH]c2ccccc12)NC(=O)[C@H](Cc1c[nH]cn1)NC(=O)[C@H](Cc1ccc(O)cc1)NC(=O)[C@H](CC(C)C)NC(=O)[C@@H](NC(=O)[C@H](CO)NC(=O)[C@@H](NC(=O)[C@H](Cc1ccc(O)cc1)NC(=O)[C@H](C)NC(=O)[C@H](CC(C)C)NC(=O)[C@H](CC(C)C)NC(=O)[C@H](CCC(=O)O)NC(=O)[C@H](CO)NC(=O)[C@H](CC(C)C)NC(=O)[C@H](CCCNC(=N)N)NC(=O)[C@H](CC(C)C)NC(=O)[C@H](C)NC(=O)[C@@H](NC(=O)[C@H](CC(=O)O)NC(=O)[C@@H](NC(=O)[C@H](CO)NC(=O)[C@@H]1CCCN1C(=O)[C@H](CCCNC(=N)N)NC(=O)[C@H](CO)NC(=O)[C@@H]1CCCN1C(=O)[C@H](CC(=O)O)NC(=O)[C@H](C)N)[C@@H](C)O)[C@@H](C)O)C(C)C)C(C)C)C(=O)N[C@@H](CC(C)C)C(=O)N[C@@H](Cc1c[nH]c2ccccc12)C(=O)N[C@H](C(=O)N[C@@H](C)C(=O)O)[C@@H](C)O` [UL46-2] here?
**A.** DMSO

**Q.** With `CC[C@H](C)[C@H](NC(=O)[C@@H](NC(=O)[C@H](CC(=O)O)NC(=O)[C@H](CCCNC(=N)N)NC(=O)[C@H](C)N)C(C)C)C(=O)N[C@@H](CCCNC(=N)N)C(=O)N[C@@H](CCC(=O)O)C(=O)N[C@H](C(=O)N[C@@H](CC(=O)O)C(=O)N[C@@H](C)C(=O)N[C@@H](Cc1ccccc1)C(=O)N[C@@H](Cc1ccc(O)cc1)C(=O)NCC(=O)N[C@@H](CC(=O)O)C(=O)N[C@@H](CC(C)C)C(=O)N[C@@H](C)C(=O)N[C@@H](CC(=O)O)C(=O)N[C@@H](CC(C)C)C(=O)N[C@@H](CC(=O)O)C(=O)N[C@@H](CC(C)C)C(=O)N[C@@H](CCC(N)=O)C(=O)N[C@@H](CC(C)C)C(=O)N[C@@H](CCCNC(=N)N)C(=O)N[C@@H](C)C(=O)N[C@@H](C)C(=O)N1CCC[C@H]1C(=O)N1CCC[C@H]1C(=O)N[C@@H](C)C(=O)N[C@@H](CC(N)=O)C(=O)N[C@@H](CC(C)C)C(=O)N[C@@H](Cc1ccc(O)cc1)C(=O)N[C@@H](C)C(=O)N[C@@H](CCCNC(=N)N)C(=O)N[C@@H](CC(C)C)C(=O)NCC(=O)O)[C@@H](C)O` [UL36-4] as the molecule, how does the Solubility read?
**A.** DMSO

**Q.** Which Solubility does the source give for “ARLRLEARLGHLVAAILEREQSLVAHALGYQLAFV [UL22-4]” here?
**A.** water

**Q.** For `CC(C)C[C@H](NC(=O)[C@H](C)NC(=O)[C@H](CCCNC(=N)N)NC(=O)[C@@H](NC(=O)[C@@H](NC(=O)[C@H](Cc1c[nH]cn1)NC(=O)CNC(=O)CNC(=O)[C@H](CC(C)C)NC(=O)[C@H](CO)NC(=O)[C@H](CC(C)C)NC(=O)[C@H](CO)NC(=O)[C@H](CCCNC(=N)N)NC(=O)[C@@H]1CCCN1C(=O)[C@H](C)NC(=O)[C@@H](NC(=O)[C@H](CCCNC(=N)N)NC(=O)[C@@H]1CCCN1C(=O)[C@H](CC(N)=O)NC(=O)CN)[C@@H](C)O)[C@@H](C)O)C(C)C)C(=O)N[C@@H](CO)C(=O)N1CCC[C@H]1C(=O)N[C@H](C(=O)N1CCC[C@H]1C(=O)N1CCC[C@H]1C(=O)N[C@@H](Cc1c[nH]c2ccccc12)C(=O)N1CCC[C@H]1C(=O)NCC(=O)N[C@H](C(=O)N[C@@H](CC(=O)O)C(=O)N[C@@H](CC(=O)O)C(=O)N[C@@H](CCC(=O)O)C(=O)N[C@@H](CC(=O)O)C(=O)N[C@@H](CC(=O)O)C(=O)N[C@@H](CC(=O)O)C(=O)O)[C@@H](C)O)[C@@H](C)O` [RL02-1], which Solubility is on record?
**A.** water

**Q.** With `CSCC[C@H](NC(=O)[C@H](CC(C)C)NC(=O)[C@H](CC(N)=O)NC(=O)[C@H](CCC(=O)O)NC(=O)[C@H](CC(C)C)NC(=O)[C@H](CC(C)C)NC(=O)[C@@H](NC(=O)[C@@H]1CCCN1C(=O)[C@H](Cc1ccccc1)NC(=O)[C@H](CCCNC(=N)N)NC(=O)[C@H](CCCNC(=N)N)NC(=O)[C@@H](NC(=O)[C@@H](NC(=O)[C@H](CCC(=O)O)NC(=O)CNC(=O)[C@@H](N)CC(C)C)C(C)C)[C@@H](C)O)C(C)C)C(=O)N[C@@H](CCCNC(=N)N)C(=O)N[C@@H](C)C(=O)N[C@@H](CC(C)C)C(=O)N[C@@H](CCC(=O)O)C(=O)NCC(=O)N[C@H](C(=O)N[C@@H](C)C(=O)N1CCC[C@H]1C(=O)N[C@@H](CC(=O)O)C(=O)N[C@@H](C)C(=O)N[C@@H](Cc1ccccc1)C(=O)N[C@@H](Cc1ccccc1)C(=O)N[C@@H](Cc1c[nH]cn1)C(=O)N[C@H](C(=O)N[C@@H](C)C(=O)N[C@@H](Cc1ccc(O)cc1)C(=O)N[C@@H](C)C(=O)N[C@@H](CC(C)C)C(=O)N[C@@H](C)C(=O)O)[C@@H](C)O)[C@@H](C)O` [UL17-2] as the molecule, how does the Solubility read?
**A.** water

**Q.** For `CC(C)C[C@H](NC(=O)[C@@H]1CCCN1C(=O)[C@@H](NC(=O)[C@H](CO)NC(=O)[C@H](C)NC(=O)[C@H](CO)NC(=O)[C@H](CO)NC(=O)[C@H](CCCNC(=N)N)NC(=O)[C@@H](NC(=O)[C@H](CO)NC(=O)[C@@H](N)CC(=O)O)C(C)C)C(C)C)C(=O)N[C@@H](Cc1ccc(O)cc1)C(=O)N1CCC[C@H]1C(=O)N[C@@H](C)C(=O)N[C@@H](C)C(=O)N[C@@H](CO)C(=O)N1CCC[C@H]1C(=O)N[C@H](C(=O)N1CCC[C@H]1C(=O)N[C@@H](C)C(=O)N[C@@H](CCC(=O)O)C(=O)N[C@@H](C)C(=O)N[C@@H](Cc1ccc(O)cc1)C(=O)N[C@@H](Cc1ccc(O)cc1)C(=O)N[C@@H](CO)C(=O)N[C@@H](CCC(=O)O)C(=O)N[C@@H](CO)C(=O)N[C@@H](CCC(=O)O)C(=O)N[C@@H](CC(=O)O)C(=O)N[C@@H](CCC(=O)O)C(=O)N[C@@H](C)C(=O)N[C@@H](C)C(=O)N[C@@H](CC(N)=O)C(=O)N[C@@H](CC(=O)O)C(=O)N[C@@H](Cc1ccccc1)C(=O)O)C(C)C` [US09-2], which Solubility is on record?
**A.** water

**Q.** Which Solubility does the source give for `CC[C@H](C)[C@H](NC(=O)[C@H](CC(=O)O)NC(=O)[C@H](CCCCN)NC(=O)[C@@H](NC(=O)[C@H](CC(=O)O)NC(=O)[C@H](CO)NC(=O)[C@H](CC(C)C)NC(=O)[C@H](CCCNC(=N)N)NC(=O)[C@H](CCCNC(=N)N)NC(=O)[C@H](CCCNC(=N)N)NC(=O)[C@H](CO)NC(=O)[C@H](CS)NC(=O)[C@H](CC(C)C)NC(=O)[C@H](CC(=O)O)NC(=O)[C@H](CC(=O)O)NC(=O)[C@@H](N)CC(C)C)[C@@H](C)CC)C(=O)N[C@@H](C)C(=O)N[C@@H](CO)C(=O)N[C@@H](Cc1ccccc1)C(=O)N[C@H](C(=O)N[C@@H](CC(C)C)C(=O)N[C@H](C(=O)N[C@H](C(=O)N[C@@H](CC(C)C)C(=O)N[C@@H](C)C(=O)N[C@@H](CCCNC(=N)N)C(=O)N[C@@H](CC(C)C)C(=O)N[C@@H](C)C(=O)N[C@@H](CC(N)=O)C(=O)N[C@@H](CCCNC(=N)N)C(=O)N[C@H](C(=O)N[C@@H](CCC(=O)O)C(=O)N[C@@H](CCCNC(=N)N)C(=O)NCC(=O)N[C@H](C(=O)O)C(C)C)C(C)C)[C@@H](C)CC)C(C)C)C(C)C` [UL54-2] here?
**A.** water

**Q.** Which Solubility does the source give for `CC[C@H](C)[C@H](NC(=O)[C@H](CO)NC(=O)[C@H](CC(=O)O)NC(=O)[C@@H](NC(=O)[C@@H](NC(=O)[C@@H](NC(=O)CNC(=O)[C@H](CCC(N)=O)NC(=O)[C@H](CCC(N)=O)NC(=O)[C@H](Cc1ccc(O)cc1)NC(=O)[C@H](C)NC(=O)[C@H](CCCCN)NC(=O)[C@@H](N)CO)C(C)C)[C@@H](C)O)C(C)C)C(=O)NCC(=O)N[C@@H](CCSC)C(=O)N[C@@H](CC(C)C)C(=O)N1CCC[C@H]1C(=O)N[C@@H](CCCNC(=N)N)C(=O)N[C@@H](Cc1ccccc1)C(=O)N[C@H](C(=O)N1CCC[C@H]1C(=O)N[C@@H](CCC(=O)O)C(=O)N[C@@H](CC(N)=O)C(=O)N[C@@H](CCC(N)=O)C(=O)N[C@@H](CCCNC(=N)N)C(=O)N[C@H](C(=O)N[C@H](C(=O)N[C@@H](C)C(=O)N[C@@H](CC(C)C)C(=O)N[C@@H](Cc1ccc(O)cc1)C(=O)N[C@@H](CO)C(=O)N[C@@H](CC(C)C)C(=O)N[C@@H](CCCCN)C(=O)N[C@H](C(=O)N[C@@H](C)C(=O)O)[C@@H](C)CC)C(C)C)[C@@H](C)O)[C@@H](C)CC` [US06-3] here?
**A.** water

**Q.** For “PATLIPRAAAKHLAALTRVQAERSSGYWWVNGDGI [UL45-1]”, which Solubility is on record?
**A.** water

**Q.** With “VAPACIIAAVLAYYVTWLARALLLYVNIKRDRLPL [UL20-2]” as the molecule, how does the Solubility read?
**A.** DMSO
